Measured values: ChEMBL document CHEMBL1138758, “Efficient method for high-throughput virtual screening based on flexible docking: discovery of novel acetylcholinesterase inhibitors” (J Med Chem, 2004)

Test: Inhibitory activity towards acetylcholine esterase (AChE)
Parameters: species or system Tetronarce californica

In order of falling IC50:
1. O=C(O[C@@H]1Cc2c(O)cc(O)cc2O[C@@H]1c1ccc(O)c(O)c1)c1cc(O)c(O)c(O)c1 [EPICATECHIN GALLATE]  28 µM
2. Cc1nc(N)ncc1-c1nnnn1-c1ccc(-c2ccccc2)cc1  27 µM
3. CN(C)c1ccc(-c2c3cc(O)c(=O)cc-3oc3cc(O)c(O)cc23)cc1  22 µM
4. Cc1c(/N=C/c2ccccc2O)cc2c(c1N)C(C)(C)CC2(C)C  16 µM
5. Cc1cc(C2(c3cc(C)c(O)c(C)c3)CCCCC2)cc(C)c1O  15 µM
6. COc1ccc(/N=C/c2cn(-c3ccc(OC)cc3)cc2/C=N/c2ccc(OC)cc2)cc1  14 µM
7. CCCc1cc(-n2cccn2)ccc1C(=O)ONC(=N)c1ccc(C(F)(F)F)cc1  13 µM
8. Fc1ccc(N(Cc2ccc3c(c2)OCO3)C(=S)Nc2cccc(C(F)(F)F)c2)cc1  8 µM
9. C/C(=N/O)c1ccc(Cl)c(NC(=O)c2c(-c3ccccc3Cl)noc2C)c1  6.7 µM
10. O=C(CC1S/C(=N/c2ccc(C3CCCCC3)cc2)NC1=O)Nc1ccc(OC(F)(F)F)cc1 (centres undefined)  2.9 µM
11. COc1cc(N)c(Cl)cc1C(=O)NC1CCN(Cc2ccccc2)CC1 [CLEBOPRIDE]  0.89 µM
12. CC(Cc1ccc(O)cc1)C1CCC(C)C(c2ccc(O)cc2)C1 (centres undefined)  0.62 µM
13. O=C(Nc1cccc(C2=NCCN2)c1)Nc1cccc(C2=NCCN2)c1 [IMIDOCARB]  0.59 µM
14. CNC(=O)Oc1ccc2c(c1)[C@]1(C)CCN(C)[C@@H]1N2C [PHYSOSTIGMINE]  0.36 µM
